Measured values reported in publication PMC6713165, “Identification of 1H-pyrazolo[3,4-b]pyridine derivatives as potent ALK-L1196M inhibitors” (Journal of Enzyme Inhibition and Medicinal Chemistry, 2019).
Read-outs that look alike come from different tables or passages of the source.

Legend:
[1] = Permeability assessment using Caco-2 cells; type: in vitro ADME, human; settings: human; for efflux ratio at 120 min, 10 µM / Papp B→A at 120 min, 10 µM: Caco-2, 10 µM
Description: (§1) Stock solutions (10 mM) of reference compounds and 10g were diluted to a concentration of 10 µM with the transport buffer (HBSS + 1%BSA) and the test compounds were applied to the apical or basolateral side of the cell monolayer. […] In addition, the efflux ratio of each compound was also determined. Reference compounds and 10g were quantified by LC-MS/MS analysis based on the peak area ratio of analyte/the internal standard.

ALK-wt = ALK-wt (Homo sapiens, UniProt Q9UM73); test: Radiometric biochemical kinase assay, ALK-wt; settings: radiometric kinase assay, 10 µM ATP; for IC50: read-out: IC50 ALK-wt
ALK-wt, sequence (Q9UM73 19-1620): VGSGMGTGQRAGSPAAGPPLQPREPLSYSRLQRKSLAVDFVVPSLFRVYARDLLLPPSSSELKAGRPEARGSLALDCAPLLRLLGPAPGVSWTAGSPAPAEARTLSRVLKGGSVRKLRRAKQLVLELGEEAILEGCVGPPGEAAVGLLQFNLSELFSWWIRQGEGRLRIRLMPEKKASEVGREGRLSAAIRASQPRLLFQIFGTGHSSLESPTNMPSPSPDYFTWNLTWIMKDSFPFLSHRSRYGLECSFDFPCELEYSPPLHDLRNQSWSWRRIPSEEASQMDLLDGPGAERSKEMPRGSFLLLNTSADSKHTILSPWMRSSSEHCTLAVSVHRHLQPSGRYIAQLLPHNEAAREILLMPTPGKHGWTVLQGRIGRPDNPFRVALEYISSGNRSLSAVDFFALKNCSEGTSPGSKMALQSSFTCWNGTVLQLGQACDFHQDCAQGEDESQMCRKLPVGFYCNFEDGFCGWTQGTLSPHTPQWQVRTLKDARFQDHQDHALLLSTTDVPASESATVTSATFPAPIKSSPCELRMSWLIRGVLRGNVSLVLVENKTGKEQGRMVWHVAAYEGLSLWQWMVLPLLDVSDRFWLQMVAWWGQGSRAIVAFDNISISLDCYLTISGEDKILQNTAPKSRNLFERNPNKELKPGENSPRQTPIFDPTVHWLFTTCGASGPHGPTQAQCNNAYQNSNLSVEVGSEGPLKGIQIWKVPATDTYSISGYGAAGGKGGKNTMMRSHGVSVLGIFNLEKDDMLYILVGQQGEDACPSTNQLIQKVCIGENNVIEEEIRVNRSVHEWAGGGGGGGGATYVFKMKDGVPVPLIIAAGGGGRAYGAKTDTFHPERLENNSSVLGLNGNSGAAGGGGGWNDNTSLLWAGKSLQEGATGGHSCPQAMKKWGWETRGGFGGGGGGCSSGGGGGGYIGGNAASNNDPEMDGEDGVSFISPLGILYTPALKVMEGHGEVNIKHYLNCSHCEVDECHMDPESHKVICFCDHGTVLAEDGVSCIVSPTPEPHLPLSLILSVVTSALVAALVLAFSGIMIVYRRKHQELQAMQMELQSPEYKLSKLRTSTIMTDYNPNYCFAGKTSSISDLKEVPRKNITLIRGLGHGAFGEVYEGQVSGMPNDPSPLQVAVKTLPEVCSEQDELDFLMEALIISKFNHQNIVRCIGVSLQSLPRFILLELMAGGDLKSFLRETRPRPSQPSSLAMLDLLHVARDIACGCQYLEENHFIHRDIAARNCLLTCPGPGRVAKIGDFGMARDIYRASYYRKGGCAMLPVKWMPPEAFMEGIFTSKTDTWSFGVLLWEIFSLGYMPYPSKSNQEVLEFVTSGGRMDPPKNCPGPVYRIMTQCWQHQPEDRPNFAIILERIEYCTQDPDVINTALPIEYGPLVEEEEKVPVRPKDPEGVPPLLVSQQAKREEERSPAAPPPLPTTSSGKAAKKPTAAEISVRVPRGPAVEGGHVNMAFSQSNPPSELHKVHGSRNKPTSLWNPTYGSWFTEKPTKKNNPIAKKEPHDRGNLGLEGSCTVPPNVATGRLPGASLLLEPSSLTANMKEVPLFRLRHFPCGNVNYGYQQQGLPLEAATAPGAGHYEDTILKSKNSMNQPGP
Description: (§2) Biochemical kinase assay was performed by methods previously reported. Kinase reactions of all test compounds except 10g were carried out at 10 µM ATP. Kinase reaction of 10g was performed at three different concentrations of ATP (10/50/100 µM).

ALK-L1196M = ALK-L1196M (Homo sapiens, UniProt Q9UM73, L1196M); test: Radiometric biochemical kinase assay, ALK-L1196M; settings: for IC50: radiometric kinase assay, 10 µM ATP
ALK-L1196M, sequence (Q9UM73 19-1620 L1196M): as the sequence (Q9UM73 19-1620) above, with L1178M counted along it
Description: as §2

H2228 (EML4-ALK) cells = test: Anti-proliferation assay (CTG), H2228; type: cell-based; settings: mean ± SD of three independent experiments; for GI50: Homo sapiens, NCI-H2228, 72 h; for GI50 H2228 (EML4-ALK): 72 h
Description: (§3) ALK wt-TEL, ALK L1196M-TEL transformed Ba/F3 and H2228 cell lines were cultured in RPMI1640 (Welgene, # LM011-01). […] Parental Ba/F3 cells were cultured in RPMI1640 media supplemented with 10% foetal bovine serum and 1% penicillin/streptomycin solution in the presence of IL-3. The cells were maintained in a humidified atmosphere containing 5% CO2 at 37 °C.
(§4) Cells (ALK wt-TEL, ALK L1196M-TEL and Parental Ba/F3: 1 × 10^4, H2228: 5 × 10^3) were plated in 96 well tissue culture plates. Each compound was added to each well at 10 dose points of three-fold serial dilution in DMSO. After treatment with each compound for 72 h, CTG assay solution (Promega, # G7572) was added to each well.

Parental Ba/F3 cells = test: Anti-proliferation assay (CTG), parental Ba/F3; type: cell-based; settings: with IL-3, mean ± SD of three independent experiments; for GI50 Ba/F3 cell lines Parental: 72 h; for GI50: Mus musculus, BaF3, 72 h, read-out: GI50 Ba/F3 cell lines Parental
Description: as §3, §4

ALK wt-TEL Ba/F3 cells = test: Anti-proliferation assay (CTG), ALK wt-TEL Ba/F3; type: cell-based; settings: 72 h, CTG, mean ± SD of three independent experiments; for GI50: Mus musculus, BaF3, read-out: GI50 Ba/F3 cell lines ALK wt-TEL
Description: as §3, §4

[2] = system: ALK L1196M-TEL Ba/F3 cells; test: Anti-proliferation assay (CTG), ALK L1196M-TEL Ba/F3; type: cell-based; settings: for GI50: Mus musculus, BaF3, read-out: GI50 Ba/F3 cell lines ALKL1196M-TEL; for differential cytotoxicity against ALK-L1196M Ba/F3 cells vs. parental Ba/F3 cells compared with crizotinib: in words
Description: as §3, §4

Caco-2 cells = test: Permeability assessment using Caco-2 cells; type: in vitro ADME, human; settings: P-gp substrate status from efflux ratio
Description: as §1

[3] = Caco-2, Caco-2, 10 µM, 120 min, 37 °C, HBSS + 1%BSA, read-out: Mean Papp A to B
[4] = Caco-2, Caco-2, 10 µM, 120 min, read-out: Mean recovery % A to B
[5] = Caco-2, Caco-2, 10 µM, 120 min, read-out: Mean recovery % B to A
[6] = Caco-2, Caco-2 permeability class from Papp (A to B), read-out: Rank Papp
[7] = 72 h, CTG, mean ± SD of three independent experiments

CC(C)NCC(O)COc1cccc2ccccc12 (centres unmarked) [Propranolol]
Papp A→B at 120 min, 10 µM [1, 3]: 16.1 ×10⁻⁶ cm/s | recovery at 120 min, 10 µM [1, 4]: 84.8% | recovery at 120 min, 10 µM [1, 5]: 91.7% | Papp A→B at 120 min, 10 µM [1, 6]: > 10 ×10⁻⁶ cm/s | efflux ratio at 120 min, 10 µM ([1]; 120 min): 0.52 | Papp B→A at 120 min, 10 µM ([1]; 120 min, 37 °C, HBSS + 1%BSA): 8.42 ×10⁻⁶ cm/s

CN(C)c1ccc(C(=O)Nc2n[nH]c3ncc(S(=O)(=O)c4cccc(F)c4)cc23)cc1 [10e, 4-(Dimethylamino)-N-(5-((3-fluorophenyl)sulfonyl)-1H-pyrazolo[3,4-b]pyridin-3-yl)benzamide]
IC50 (ALK-wt): 0.0073 µM | IC50 (ALK-L1196M): 0.0007 µM | GI50 (H2228 (EML4-ALK) cells): 8.54 ± 0.78 µM | GI50 Ba/F3 cell lines Parental (Parental Ba/F3 cells): Inactive | GI50 (ALK wt-TEL Ba/F3 cells): 1.77 ± 0.69 µM | GI50 [2, 7]: 4.55 ± 0.72 µM | differential cytotoxicity against ALK-L1196M Ba/F3 cells vs. parental Ba/F3 cells compared with crizotinib [2]: higher differential cytotoxicities

O=C(Nc1n[nH]c2ncc(S(=O)(=O)c3cccc(F)c3)cc12)c1cccc(C(F)(F)F)c1 [10b, N-(5-((3-Fluorophenyl)sulfonyl)-1H-pyrazolo[3,4-b]pyridin-3-yl)-3-(trifluoromethyl)benzamide]
IC50 ALK-wt (ALK-wt): little to no activity

O=C(Nc1n[nH]c2ncc(S(=O)(=O)c3cccc(F)c3)cc12)c1ccc(N2CCOCC2)cc1 [10f, N-(5-((3-Fluorophenyl)sulfonyl)-1H-pyrazolo[3,4-b]pyridin-3-yl)-4-morpholinobenzamide]
IC50 ALK-wt (ALK-wt): Picomolar inhibitory activity | IC50 (ALK-L1196M): 0.0014 µM | GI50 (H2228 (EML4-ALK) cells): 1.69 ± 0.4 µM | GI50 Ba/F3 cell lines Parental (Parental Ba/F3 cells): Inactive | GI50 (ALK wt-TEL Ba/F3 cells): 0.916 ± 0.5 µM | GI50 [2, 7]: 2.53 ± 1.5 µM | differential cytotoxicity against ALK-L1196M Ba/F3 cells vs. parental Ba/F3 cells compared with crizotinib [2]: higher differential cytotoxicities

COc1ccc(C(=O)Nc2n[nH]c3ncc(S(=O)(=O)c4cccc(F)c4)cc23)cc1 [10d, N-(5-((3-Fluorophenyl)sulfonyl)-1H-pyrazolo[3,4-b]pyridin-3-yl)-4-methoxybenzamide]
IC50 (ALK-wt): 0.069 µM | activity against ALK-L1196M relative to crizotinib (ALK-L1196M; IC50 19 nM vs 980 nM of crizotinib): 50 fold | IC50 (ALK-L1196M): 0.019 µM | GI50 H2228 (EML4-ALK) (H2228 (EML4-ALK) cells): Inactive | GI50 Ba/F3 cell lines Parental (Parental Ba/F3 cells): Inactive | GI50 Ba/F3 cell lines ALK wt-TEL (ALK wt-TEL Ba/F3 cells): Inactive | GI50 Ba/F3 cell lines ALKL1196M-TEL [2, 7]: Inactive

C[C@@H](Oc1cc(-c2cnn(C3CCNCC3)c2)cnc1N)c1c(Cl)ccc(F)c1Cl [crizotinib, reference compound]
GI50 (Parental Ba/F3 cells): 1.65 ± 0.13 µM

O=C(Nc1n[nH]c2ncc(S(=O)(=O)c3cccc(F)c3)cc12)c1ccc(C(F)(F)F)cc1 [10c, N-(5-((3-Fluorophenyl)sulfonyl)-1H-pyrazolo[3,4-b]pyridin-3-yl)-4-(trifluoromethyl)benzamide]
IC50 ALK-wt (ALK-wt): little to no activity

CN1CCN(c2cccc(C(=O)Nc3n[nH]c4ncc(S(=O)(=O)c5cccc(F)c5)cc34)c2)CC1 [10h, N-(5-((3-Fluorophenyl)sulfonyl)-1H-pyrazolo[3,4-b]pyridin-3-yl)-3–(4-methylpiperazin-1-yl)benzamide]
GI50 H2228 (EML4-ALK) (H2228 (EML4-ALK) cells): Inactive | GI50 (Parental Ba/F3 cells): 15.2 ± 0.52 µM | GI50 (ALK wt-TEL Ba/F3 cells): 3.35 ± 0.24 µM | GI50 [2, 7]: 2.28 ± 0.59 µM | differential cytotoxicity against ALK-L1196M Ba/F3 cells vs. parental Ba/F3 cells compared with crizotinib [2]: higher differential cytotoxicities

CS(=O)(=O)Nc1ccc(C(=O)Nc2n[nH]c3ncc(S(=O)(=O)c4cccc(F)c4)cc23)cc1 [13c, N-(5-((3-Fluorophenyl)sulfonyl)-1H-pyrazolo[3,4-b]pyridin-3-yl)-4-(methylsulfonamido)benzamide]
GI50 (H2228 (EML4-ALK) cells): 9.21 ± 1.92 µM | GI50 Ba/F3 cell lines Parental (Parental Ba/F3 cells): inactive | GI50 (ALK wt-TEL Ba/F3 cells): 4.71 ± 3.02 µM | GI50 [2, 7]: 5.62 ± 2.34 µM | differential cytotoxicity against ALK-L1196M Ba/F3 cells vs. parental Ba/F3 cells compared with crizotinib [2]: higher differential cytotoxicities

Nc1ccc(C(=O)Nc2n[nH]c3ncc(S(=O)(=O)c4cccc(F)c4)cc23)cc1 [compound 12, 4-Amino-N-(5-((3-fluorophenyl)sulfonyl)-1H-pyrazolo[3,4-b]pyridin-3-yl)benzamide]
GI50 (H2228 (EML4-ALK) cells): 4.03 ± 1.81 µM | GI50 Ba/F3 cell lines Parental (Parental Ba/F3 cells): Inactive | GI50 (ALK wt-TEL Ba/F3 cells): 3.87 ± 1.54 µM | GI50 [2, 7]: 1.98 ± 0.28 µM | differential cytotoxicity against ALK-L1196M Ba/F3 cells vs. parental Ba/F3 cells compared with crizotinib [2]: higher differential cytotoxicities

C[C@H]1O[C@@H](O[C@H]2[C@@H](O)C[C@H](O[C@H]3[C@@H](O)C[C@H](O[C@H]4CC[C@@]5(C)[C@H](CC[C@@H]6[C@@H]5C[C@@H](O)[C@]5(C)[C@@H](C7=CC(=O)OC7)CC[C@]65O)C4)O[C@@H]3C)O[C@@H]2C)C[C@H](O)[C@@H]1O [Digoxin]
Papp A→B at 120 min, 10 µM [1, 3]: 0.43 ×10⁻⁶ cm/s | recovery at 120 min, 10 µM [1, 4]: 96.8% | recovery at 120 min, 10 µM [1, 5]: 95.1% | Papp A→B at 120 min, 10 µM [1, 6]: < 2.5 ×10⁻⁶ cm/s | efflux ratio at 120 min, 10 µM ([1]; 120 min): 20.2 | Papp B→A at 120 min, 10 µM ([1]; 120 min, 37 °C, HBSS + 1%BSA): 8.6 ×10⁻⁶ cm/s | Rank P-gp (Caco-2 cells): Substrate

N#Cc1ccc(C(=O)Nc2n[nH]c3ncc(S(=O)(=O)c4cccc(F)c4)cc23)cc1 [10a, 4-Cyano-N-(5-((3-fluorophenyl)sulfonyl)-1H-pyrazolo[3,4-b]pyridin-3-yl)benzamide]
IC50 (ALK-wt): 0.453 µM
